Experimental data: paper PMC11111852, “Exploration of the role of the penicillin binding protein 2c (Pbp2c) in inducible β-lactam resistance in Corynebacteriaceae” (Frontiers in Microbiology, 2024)

Assays:
[1] = target: T1, Pbp2c (Corynebacterium jeikeium, UniProt Q4JX88); assay: electrospray mass spectrometry of covalent adduct; type: binding; details: 20 uM protein, 200 uM drug, 1 h, 20 °C, 100 mM MES pH 6.4
T1 construct: residues 32-593 without N-terminal transmembrane segment; E. coli BL21(DE3); 62,975 Da; monomer
T1 sequence (Q4JX88 entry or part of it): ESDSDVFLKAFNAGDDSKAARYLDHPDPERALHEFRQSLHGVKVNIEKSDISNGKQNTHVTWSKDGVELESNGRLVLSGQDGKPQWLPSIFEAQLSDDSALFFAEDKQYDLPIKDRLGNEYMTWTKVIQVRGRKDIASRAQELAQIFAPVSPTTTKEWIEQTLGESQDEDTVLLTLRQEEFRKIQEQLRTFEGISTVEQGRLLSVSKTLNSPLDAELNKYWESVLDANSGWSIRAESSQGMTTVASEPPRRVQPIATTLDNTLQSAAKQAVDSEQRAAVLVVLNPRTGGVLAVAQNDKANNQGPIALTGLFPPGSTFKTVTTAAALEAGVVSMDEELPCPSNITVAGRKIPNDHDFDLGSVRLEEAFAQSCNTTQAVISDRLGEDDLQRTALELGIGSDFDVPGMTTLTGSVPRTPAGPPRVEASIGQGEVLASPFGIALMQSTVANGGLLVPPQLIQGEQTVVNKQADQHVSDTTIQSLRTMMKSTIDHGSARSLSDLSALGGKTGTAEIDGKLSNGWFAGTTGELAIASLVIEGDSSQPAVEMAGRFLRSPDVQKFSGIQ

[2] = target: T2, BlaCor (Corynebacterium jeikeium, UniProt Q4JX89); assay: electrospray mass spectrometry of covalent adduct; type: binding; details: not hydrolysed
T2 construct: gene jk0411; 276-residue protein with N-terminal His6-TEV tag (pET-TEV), E. coli BL21(DE3), observed mass 32,825 Da, monomer
T2 sequence (Q4JX89 entry or part of it): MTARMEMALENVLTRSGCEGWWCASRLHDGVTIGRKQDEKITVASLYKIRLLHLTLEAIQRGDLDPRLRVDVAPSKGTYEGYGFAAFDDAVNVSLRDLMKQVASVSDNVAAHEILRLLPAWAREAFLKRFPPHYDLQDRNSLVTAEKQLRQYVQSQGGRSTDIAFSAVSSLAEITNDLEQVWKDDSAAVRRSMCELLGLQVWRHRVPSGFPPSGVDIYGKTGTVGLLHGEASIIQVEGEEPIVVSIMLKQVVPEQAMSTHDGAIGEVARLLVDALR

Compound	electrospray mass spectrometry of covalent adduct [1]	electrospray mass spectrometry of covalent adduct [2]
C[C@@H](O)[C@H]1C(=O)N2C(C(=O)O)=C(SCCN=CN)C[C@H]12 [imipenem]	Incubation of Pbp2c with imipenem allowed the detection of adducts	
C[C@@H](O)[C@H]1C(=O)N2C(C(=O)O)=C(S[C@@H]3CN[C@H](C(=O)N(C)C)C3)[C@H](C)[C@H]12 [meropenem]	Adducts matching increments of the average mass of meropenem were also detected	
O=C(Cc1cccs1)N[C@@H]1C(=O)N2C(C(=O)O)=C(/C=C/c3ccc([N+](=O)[O-])cc3[N+](=O)[O-])CS[C@H]12 [nitrocefin]		the nitrocefin-BlaCor adduct was detected by mass spectrometry (data not shown)
